Legend:
[1] = system: adult subjects with schizophrenia; experiment: BPRS total score, Clinical Study Two; type: in vivo, human; conditions: for Change from Baseline in BPRS Total Score, Mean (SD) / Change from Baseline in BPRS Total Score, Median / Change from Baseline in BPRS Total Score, Trt Effect (bifeprunox—placebo) / mean change (SD) from Baseline to Endpoint in BPRS total score: LOCF; for Change from Baseline in BPRS Total Score, Mean (SD) / Change from Baseline in BPRS Total Score, Median / Change from Baseline in BPRS Total Score, Trt Effect (bifeprunox—placebo): ITT population; for BPRS total score, treatment effect (bifeprunox—placebo): Endpoint LOCF; for mean change (SD) from Baseline to Endpoint in BPRS total score: ITT
Experimental: Rating scale assessments were performed weekly, except for week 5, to measure the change from baseline to endpoint of the PANSS total score. Other assessments included: PANSS positive symptom subscale score, PANSS negative symptom subscale score, PANSS general pschopathology subscale score, BPRS total score, BPRS psychosis score, the CGI-S score, the CGI-I score, responder rates based on the PANSS total score, and the Calgary Depression Scale for Schizophrenia (CDSS). […]
Subjects who completed this study had the option to continue in the long-term. […] Blood samples were also obtained at Screening/Baseline, Week 3, and Week 6 for clinical laboratory assessments.

[2] = system: adult subjects with schizophrenia; experiment: BPRS psychosis cluster score, Clinical Study One; type: in vivo, human; conditions: for Change from Baseline in BPRS Psychosis Cluster Score, Mean (S.D.) / Change from Baseline in BPRS Psychosis Cluster Score, Median / Change from Baseline in BPRS Psychosis Cluster Score, Trt Effect (bifeprunox—placebo) / Change from Baseline in BPRS Psychosis Cluster Score, Mean S.D.: ITT population
Experimental: There were five treatment groups in this study. […] Study medication was administered once daily. After Baseline measurements were performed, the titration phase was begun. Bifeprunox treated subjects were titrated up to 5 mg, 10 mg or 20 mg according to a standardized titration schedule (Day 1: 0.125 mg, Day 2: 0.25 mg, Day 3: 0.5 mg, Day 4: 1.0 mg, Day 5: 2.0 mg, Day 6: 5.0 mg, Day 7: 10.0 mg, Day 8: 20 mg). When the assigned dose was reached, subjects were maintained at that dose for the remainder of the six-week treatment period.

[3] = system: adult subjects with schizophrenia; experiment: SAS, BAS and AIMS movement scales, Clinical Study Two; type: in vivo, human
Experimental: Pharmacokinetic (PK) data of bifeprunox in schizophrenic subjects were also assessed and are presented in a separate report (combined with data from study S1543003).
The SAS is used to measure Parkinsonian-type symptoms in patients exposed to antipsychotics. The scale consists of 10 items, each rated on a 5-point scale ranging from 0 (complete absence of the condition) to 4 (presence of the condition in extreme form). The SAS total score is defined as the sum of all item scores, and the range is 0 to 40. A SAS total score of up to 3 is considered normal.
The BAS is used to rate observable, restless movements of drug-induced akathisia as well as the subjective awareness of restlessness and any distress associated with the akathisia. The scale consists of 3 items that is rated from 0 (no evidence of akathisia) to 3 (severe akathisia). The BAS total score is defined as the sum of the these three BAS item scores and ranges from is 0 to 9. In addition, a global clinical assessment of akathisia is rated from 0 (no evidence of akathisia) to 5 (severe akathisia).
The AIMS, designed to record the occurrence of dyskinetic movements, consists of 12 items. Items 1 to 7 measure specific involuntary movements on a scale from 0 (none) to 4 (severe). Items 8 to 10 measure global assessment of abnormal movement on a scale from 0 (no awareness) to 4 (aware, severe distress). Items 11 and 12 are questions regarding the dental condition of the patient, with yes/no answers. The total score is calculated by summing AIMS items 1 through 10 and ranges from 0 to 40; the non-global total score is calculated by summing items 1 through 7.

[4] = Body weight, Clinical Study Three; conditions: Bifeprunox 30 mg
Excerpt: To assess the safety and tolerability of bifeprunox using physical examination, weight, waist circumference, vital signs (pulse rate and systolic/diastolic blood pressure [BP], and oral temperature), 12-lead electrocardiogram (ECG), clinical laboratory assessments (hematology, biochemistry including fasting insulin level, fasting glucose, fasting lipid profile, urinalysis, special laboratory assessments for prolactin, IGF-1, IGFBP-3, and thyroid function), need for anticholinergic treatment during double-blind treatment period, concomitant medication use, adverse event (AE) monitoring, and assessments of abnormal movement including the Simpson-Angus Scale (SAS), Barnes Akathisia Scale (BAS), and Abnormal Involuntary Movement Scale (AIMS).

[5] = Bifeprunox 30 mg, Week 6/Endpoint
[6] = Bifeprunox 40 mg, Week 6/Endpoint
[7] = Bifeprunox 10 mg, Endpoint LOCF
[8] = Bifeprunox 20 mg, Endpoint LOCF

For `O=c1[nH]c2cccc(N3CCN(Cc4cccc(-c5ccccc5)c4)CC3)c2o1` [Bifeprunox, 7-[4-([1,1′-biphenyl]-3-ylmethyl)-1-piperazinyl]-2(3H)-benzoxazolone], the “Change from Baseline in BPRS Total Score, Mean (SD)” value (“Change from Baseline … (SD)” below) ([1]; Bifeprunox 30 mg, Week 1) was −3.8 (7.0), the “Change from Baseline in BPRS Total Score, Median” value ([1]; Bifeprunox 30 mg, Week 1) was −3 and the “Change from Baseline … (SD)” value ([1]; Bifeprunox 30 mg, Week 2) was −7.0 (9.5). For the same compound, the “Change from Baseline in BPRS Total Score, Median” value ([1]; Bifeprunox 30 mg, Week 2) was −6, the “Change from Baseline … (SD)” value ([1]; Bifeprunox 30 mg, Week 3) was −7.93 (10.7) and the “Change from Baseline in BPRS Total Score, Median” value ([1]; Bifeprunox 30 mg, Week 3) was −6. For the same compound, the “Change from Baseline … (SD)” value ([1]; Bifeprunox 30 mg, Week 4) was −8.2 (11.5), the “Change from Baseline in BPRS Total Score, Median” value ([1]; Bifeprunox 30 mg, Week 4) was −7 and the “Change from Baseline … (SD)” value [1, 5] was −8.1 (12.3). For the same compound, the “Change from Baseline in BPRS Total Score, Median” value [1, 5] was −7, the “Change from Baseline in BPRS Total Score, Trt Effect (bifeprunox—placebo)” value [1, 5] was −3.2 and the “Change from Baseline … (SD)” value ([1]; Bifeprunox 40 mg, Week 1) was −4.3 (7.1). The “Change from Baseline in BPRS Total Score, Median” value ([1]; Bifeprunox 40 mg, Week 1) was −4, the “Change from Baseline … (SD)” value ([1]; Bifeprunox 40 mg, Week 2) was −5.5 (9.3) and the “Change from Baseline in BPRS Total Score, Median” value ([1]; Bifeprunox 40 mg, Week 2) was −6. The “Change from Baseline … (SD)” value ([1]; Bifeprunox 40 mg, Week 3) was −6.3 (10.3), the “Change from Baseline in BPRS Total Score, Median” value ([1]; Bifeprunox 40 mg, Week 3) was −6 and the “Change from Baseline … (SD)” value ([1]; Bifeprunox 40 mg, Week 4) was −5.7 (10.9). For the same compound, the “Change from Baseline in BPRS Total Score, Median” value ([1]; Bifeprunox 40 mg, Week 4) was −4, the “Change from Baseline … (SD)” value [1, 6] was −6.5 (11.7) and the “Change from Baseline in BPRS Total Score, Median” value [1, 6] was −5. The “Change from Baseline in BPRS Total Score, Trt Effect (bifeprunox—placebo)” value [1, 6] was −1.9, the “BPRS total score, treatment effect (bifeprunox—placebo)” value ([1]; bifeprunox 30 mg) was −3.2 and the “mean change (SD) from Baseline to Endpoint in BPRS total score” value ([1]; bifeprunox 30 mg) was −8.1 (12.3). The “BPRS total score, treatment effect (bifeprunox—placebo)” value ([1]; bifeprunox 40 mg) was −1.9, the “mean change (SD) from Baseline to Endpoint in BPRS total score” value ([1]; bifeprunox 40 mg) was −6.5 (11.7) and the “BPRS psychosis cluster score, treatment effect (bifeprunox—placebo)” value ([2]; Bifeprunox 5 mg, Endpoint LOCF) was −0.9. The “Change from Baseline in BPRS Psychosis Cluster Score, Mean (S.D.)” value (“Change from Baseline … (S.D.)” below) ([2]; Bifeprunox 5 mg, Endpoint LOCF) was 2.5 (3.8), the “Change from Baseline in BPRS Psychosis Cluster Score, Median” value ([2]; Bifeprunox 5 mg, Endpoint LOCF) was −3 and the “Change from Baseline in BPRS Psychosis Cluster Score, Trt Effect (bifeprunox—placebo)” value ([2]; Bifeprunox 5 mg, Endpoint LOCF) was −0.9. The “Change from Baseline … (S.D.)” value ([2]; Bifeprunox 5 mg, Week 1, LOCF) was −1.0 (2.6), the “Change from Baseline in BPRS Psychosis Cluster Score, Median” value ([2]; Bifeprunox 5 mg, Week 1, LOCF) was −1 and the “Change from Baseline in BPRS Psychosis Cluster Score, Mean S.D.” value ([2]; Bifeprunox 5 mg, Week 2, LOCF) was −1.8 (3.3). The “Change from Baseline in BPRS Psychosis Cluster Score, Median” value ([2]; Bifeprunox 5 mg, Week 2, LOCF) was −2, the “Change from Baseline … (S.D.)” value ([2]; Bifeprunox 5 mg, Week 3, LOCF) was −2.2 (3.6) and the “Change from Baseline in BPRS Psychosis Cluster Score, Median” value ([2]; Bifeprunox 5 mg, Week 3, LOCF) was −2. For the same compound, the “Change from Baseline … (S.D.)” value ([2]; Bifeprunox 5 mg, Week 4, LOCF) was −24 (3.8), the “Change from Baseline in BPRS Psychosis Cluster Score, Median” value ([2]; Bifeprunox 5 mg, Week 4, LOCF) was −3 and the “BPRS psychosis cluster score, treatment effect (bifeprunox—placebo)” value [2, 7] was 0.4. The “Change from Baseline … (S.D.)” value [2, 7] was −1.2 (4.6), the “Change from Baseline in BPRS Psychosis Cluster Score, Median” value [2, 7] was 0 and the “Change from Baseline in BPRS Psychosis Cluster Score, Trt Effect (bifeprunox—placebo)” value [2, 7] was 0.4. The “Change from Baseline … (S.D.)” value ([2]; Bifeprunox 10 mg, Week 1, LOCF) was −0.7 (3.0), the “Change from Baseline in BPRS Psychosis Cluster Score, Median” value ([2]; Bifeprunox 10 mg, Week 1, LOCF) was −1 and the “Change from Baseline in BPRS Psychosis Cluster Score, Mean S.D.” value ([2]; Bifeprunox 10 mg, Week 2, LOCF) was −1.1 (3.7). The “Change from Baseline in BPRS Psychosis Cluster Score, Median” value ([2]; Bifeprunox 10 mg, Week 2, LOCF) was −1, the “Change from Baseline … (S.D.)” value ([2]; Bifeprunox 10 mg, Week 3, LOCF) was −1.1 (4.2) and the “Change from Baseline in BPRS Psychosis Cluster Score, Median” value ([2]; Bifeprunox 10 mg, Week 3, LOCF) was −1. The “Change from Baseline … (S.D.)” value ([2]; Bifeprunox 10 mg, Week 4, LOCF) was −1.1 (4.3), the “Change from Baseline in BPRS Psychosis Cluster Score, Median” value ([2]; Bifeprunox 10 mg, Week 4, LOCF) was −1 and the “Change from Baseline … (S.D.)” value [2, 8] was −2.7 (3.9). For the same compound, the “Change from Baseline in BPRS Psychosis Cluster Score, Median” value [2, 8] was −3, the “Change from Baseline in BPRS Psychosis Cluster Score, Trt Effect (bifeprunox—placebo)” value [2, 8] was −1.1 and the “Change from Baseline … (S.D.)” value ([2]; Bifeprunox 20 mg, Week 1, LOCF) was −1.5 (2.6). The “Change from Baseline in BPRS Psychosis Cluster Score, Median” value ([2]; Bifeprunox 20 mg, Week 1, LOCF) was −1, the “Change from Baseline in BPRS Psychosis Cluster Score, Median” value ([2]; Bifeprunox 20 mg, Week 2, LOCF) was −2 and the “Change from Baseline … (S.D.)” value ([2]; Bifeprunox 20 mg, Week 3, LOCF) was −2.7 (3.5). The “Change from Baseline in BPRS Psychosis Cluster Score, Median” value ([2]; Bifeprunox 20 mg, Week 3, LOCF) was −3, the “Change from Baseline … (S.D.)” value ([2]; Bifeprunox 20 mg, Week 4, LOCF) was −2.8 (3.7) and the “Change from Baseline in BPRS Psychosis Cluster Score, Median” value ([2]; Bifeprunox 20 mg, Week 4, LOCF) was −3. The “BPRS psychosis cluster score, treatment effect (bifeprunox—placebo)” value ([2]; bifeprunox 20 mg, Endpoint LOCF) was −1.1, the “SAS shifts from normal at Baseline to abnormal at Endpoint” value ([3]; Bifeprunox 30 mg) was < 1% and the “SAS shifts from normal at Baseline to abnormal at Endpoint” value ([3]; Bifeprunox 40 mg) was 4%. The “subjects with abnormal SAS scores at Endpoint” value ([3]; Bifeprunox 40 mg) was 7% and the “Weight, Baseline Mean of subjects with Endpoint change” value [4] was 179.7 lbs.

From patent US20090068290A1, “BIFEPRUNOX DOSES FOR TREATING SCHIZOPHRENIA” (priority 2006, published 2009)
